Like-named read-outs stand apart in the source and are kept apart here.
What was measured:
PI3Kδ = target: T1, PI3Kδ (Homo sapiens, UniProt O00329); assay: PI3-Kinase HTRF assay, PI3Kδ; format: biochemical; settings: 10 μM ATP, PIP2 at 10 μM
T1 construct: purchased Millipore Corporation 14-604-K
Text: (§1) A PI3-Kinase HTRF® assay kit (cat No. 33-016) purchased from Millipore Corporation was used to screen compounds provided herein. This assay used specific, high affinity binding of the GRPI pleckstrin homology (PH) domain to PIP3, the product of a Class 1A or 1B PI3 Kinase acting on its physiological substrate PIP2. During the detection phase of the assay, a complex was generated between the GST-tagged PH domain and biotinylated short chain PIP3. The biotinylated PIP3 and the GST-tagged PH domain recruited fluorophores (Streptavidin-Allophycocyanin and Europium-labeled anti-GST respectively) to form the fluorescence resonance energy transfer (FRET) architecture, generating a stable time-resolved FRET signal. The FRET complex was disrupted in a competitive manner by non-biotinylated PIP3, a product formed in the PI3 Kinase assay.
(§2) PI3 Kinase α, β, γ and δ activity was assayed using the PI3 Kinase HTRF® assay kit (catalogue No. 33-016) purchased from Millipore Corporation. Purified recombinant PI3Kα (catalogue No. 14-602-K), PI3Kβ (catalogue No. 14-603-K), PI3Kγ (catalogue No. 14-558-K) and PI3Kδ (catalogue No. 14-604-K) were obtained from Millipore Corporation. Purified recombinant PI3K enzyme was used to catalyze the phosphorylation of phosphatidylinositol 4,5-bisphosphate (PIP2 at 10 μM) to phosphatidylinositol 3,4,5-trisphosphate (PIP3) in the presence of 10 μM ATP. The assay was carried out in 384-well format and detected using a Perkin Elmer EnVision Xcite Multilabel Reader. Emission ratios were converted into percent inhibitions and imported into GraphPad Prism software. The concentration necessary to achieve inhibition of enzyme activity by 50% (IC50) was calculated using concentrations ranging from 20 μM to 0.1 nM (12-point curve). IC50 values were determined using a nonlinear regression model available in GraphPad Prism 5. […]

PI3Kγ = target: T2, PI3Kγ (Homo sapiens, UniProt P48736); assay: PI3-Kinase HTRF assay, PI3Kγ; format: biochemical; settings: 10 μM ATP, PIP2 at 10 μM
T2 construct: purchased Millipore Corporation 14-558-K
T2 sequence (P48736 whole entry): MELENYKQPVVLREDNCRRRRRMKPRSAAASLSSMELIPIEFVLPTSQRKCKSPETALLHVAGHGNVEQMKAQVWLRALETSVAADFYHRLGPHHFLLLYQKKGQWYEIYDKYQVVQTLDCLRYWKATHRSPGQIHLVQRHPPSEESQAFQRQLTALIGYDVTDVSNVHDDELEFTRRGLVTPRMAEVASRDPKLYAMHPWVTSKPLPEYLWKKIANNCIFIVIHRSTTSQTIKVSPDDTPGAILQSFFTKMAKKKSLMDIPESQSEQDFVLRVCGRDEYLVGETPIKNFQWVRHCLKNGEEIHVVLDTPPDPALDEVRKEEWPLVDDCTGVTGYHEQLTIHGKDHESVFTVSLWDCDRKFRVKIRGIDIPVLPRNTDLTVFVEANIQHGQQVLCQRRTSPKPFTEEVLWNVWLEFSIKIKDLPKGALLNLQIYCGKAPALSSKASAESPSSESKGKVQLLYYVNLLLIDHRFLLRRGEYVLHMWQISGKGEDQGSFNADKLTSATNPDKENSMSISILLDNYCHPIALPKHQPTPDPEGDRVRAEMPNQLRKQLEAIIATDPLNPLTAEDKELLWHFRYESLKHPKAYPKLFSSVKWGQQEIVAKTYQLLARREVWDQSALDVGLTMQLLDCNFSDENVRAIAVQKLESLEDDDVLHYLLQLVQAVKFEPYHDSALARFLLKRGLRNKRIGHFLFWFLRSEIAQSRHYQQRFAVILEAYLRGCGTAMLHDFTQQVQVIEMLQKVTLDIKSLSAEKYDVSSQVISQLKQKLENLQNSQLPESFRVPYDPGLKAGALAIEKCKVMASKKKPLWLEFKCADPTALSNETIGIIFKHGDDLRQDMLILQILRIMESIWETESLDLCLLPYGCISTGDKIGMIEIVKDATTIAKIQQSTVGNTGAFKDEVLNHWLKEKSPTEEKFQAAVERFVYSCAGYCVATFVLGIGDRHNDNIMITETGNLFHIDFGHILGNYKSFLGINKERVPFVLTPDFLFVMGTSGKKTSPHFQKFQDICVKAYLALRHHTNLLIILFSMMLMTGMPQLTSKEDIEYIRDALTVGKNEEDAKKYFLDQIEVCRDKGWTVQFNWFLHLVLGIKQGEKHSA
Text: as §1, §2

PI3Kα = target: T3, PI3Kα (Homo sapiens, UniProt P42336); assay: PI3-Kinase HTRF assay, PI3Kα; format: biochemical; settings: 10 μM ATP, PIP2 at 10 μM, read-out: IC50 P13Kα
T3 construct: purchased Millipore Corporation 14-602-K
T3 sequence (P42336 whole entry): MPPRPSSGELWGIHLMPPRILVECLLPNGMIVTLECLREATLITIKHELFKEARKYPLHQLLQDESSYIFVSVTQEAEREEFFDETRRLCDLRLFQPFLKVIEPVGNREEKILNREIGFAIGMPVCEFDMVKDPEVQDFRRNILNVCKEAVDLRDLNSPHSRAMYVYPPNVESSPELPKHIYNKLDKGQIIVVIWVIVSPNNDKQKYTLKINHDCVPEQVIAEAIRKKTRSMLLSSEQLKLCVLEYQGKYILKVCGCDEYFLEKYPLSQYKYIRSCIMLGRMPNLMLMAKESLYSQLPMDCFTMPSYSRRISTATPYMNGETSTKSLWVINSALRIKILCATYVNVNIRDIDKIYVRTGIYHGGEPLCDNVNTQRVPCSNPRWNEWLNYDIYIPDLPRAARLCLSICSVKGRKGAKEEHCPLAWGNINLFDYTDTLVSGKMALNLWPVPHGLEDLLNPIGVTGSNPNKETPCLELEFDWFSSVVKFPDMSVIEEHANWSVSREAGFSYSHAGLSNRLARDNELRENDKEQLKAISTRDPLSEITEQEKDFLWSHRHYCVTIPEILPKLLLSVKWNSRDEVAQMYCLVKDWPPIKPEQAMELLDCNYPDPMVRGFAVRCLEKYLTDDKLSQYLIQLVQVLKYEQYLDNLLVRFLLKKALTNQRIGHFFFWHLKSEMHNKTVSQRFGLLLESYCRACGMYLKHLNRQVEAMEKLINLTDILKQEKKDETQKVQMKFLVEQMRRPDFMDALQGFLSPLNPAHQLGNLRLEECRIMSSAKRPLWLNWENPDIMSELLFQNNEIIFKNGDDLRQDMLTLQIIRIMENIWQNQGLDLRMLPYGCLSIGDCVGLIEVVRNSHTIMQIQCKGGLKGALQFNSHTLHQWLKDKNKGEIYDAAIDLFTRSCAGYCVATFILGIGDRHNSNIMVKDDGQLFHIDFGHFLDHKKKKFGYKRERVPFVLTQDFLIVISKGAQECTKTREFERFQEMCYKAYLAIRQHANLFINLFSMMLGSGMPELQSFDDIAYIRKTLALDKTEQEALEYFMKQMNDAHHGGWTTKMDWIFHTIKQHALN
T3 sequence (P27986 whole entry partner): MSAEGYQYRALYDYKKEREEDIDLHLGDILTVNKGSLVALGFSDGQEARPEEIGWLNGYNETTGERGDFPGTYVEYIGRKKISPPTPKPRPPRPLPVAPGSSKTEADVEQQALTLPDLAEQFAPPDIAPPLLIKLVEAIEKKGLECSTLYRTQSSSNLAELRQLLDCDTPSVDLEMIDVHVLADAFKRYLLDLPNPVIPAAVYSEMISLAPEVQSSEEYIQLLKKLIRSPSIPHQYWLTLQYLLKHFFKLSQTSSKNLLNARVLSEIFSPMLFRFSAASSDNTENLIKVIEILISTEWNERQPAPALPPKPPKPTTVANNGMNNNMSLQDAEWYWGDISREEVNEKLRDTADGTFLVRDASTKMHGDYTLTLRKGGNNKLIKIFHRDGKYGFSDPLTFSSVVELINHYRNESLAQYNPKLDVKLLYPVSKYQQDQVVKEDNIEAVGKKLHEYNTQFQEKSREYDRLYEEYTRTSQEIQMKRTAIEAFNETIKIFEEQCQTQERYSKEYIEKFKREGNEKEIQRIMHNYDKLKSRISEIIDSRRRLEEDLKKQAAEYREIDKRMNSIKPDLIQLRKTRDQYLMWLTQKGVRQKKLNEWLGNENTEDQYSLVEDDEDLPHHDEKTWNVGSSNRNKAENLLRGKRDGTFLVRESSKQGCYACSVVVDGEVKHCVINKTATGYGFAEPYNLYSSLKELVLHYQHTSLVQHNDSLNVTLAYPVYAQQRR
In short: (§3)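 Purified recombinant human PI3Kα, β, γ or δ (0.25-0.3 μg/ml) preincubated 15 min at room temperature with compound (2% DMSO) and 10 μM PIP2, then reacted 1 h with 10 μM ATP. PIP3 product detected by competitive HTRF (GST-PH domain/biotin-PIP3); IC50 from 12-point curves, 20 μM to 0.1 nM, by nonlinear regression.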

PI3Kβ = target: T4, PI3Kβ (Homo sapiens, UniProt P42338); assay: PI3-Kinase HTRF assay, PI3Kβ; format: biochemical; settings: bins Greater than 10 μM and Greater than 1 μM to 10 μM; 10 μM ATP, PIP2 at 10 μM
T4 construct: purchased Millipore Corporation 14-603-K
T4 sequence (P42338 whole entry): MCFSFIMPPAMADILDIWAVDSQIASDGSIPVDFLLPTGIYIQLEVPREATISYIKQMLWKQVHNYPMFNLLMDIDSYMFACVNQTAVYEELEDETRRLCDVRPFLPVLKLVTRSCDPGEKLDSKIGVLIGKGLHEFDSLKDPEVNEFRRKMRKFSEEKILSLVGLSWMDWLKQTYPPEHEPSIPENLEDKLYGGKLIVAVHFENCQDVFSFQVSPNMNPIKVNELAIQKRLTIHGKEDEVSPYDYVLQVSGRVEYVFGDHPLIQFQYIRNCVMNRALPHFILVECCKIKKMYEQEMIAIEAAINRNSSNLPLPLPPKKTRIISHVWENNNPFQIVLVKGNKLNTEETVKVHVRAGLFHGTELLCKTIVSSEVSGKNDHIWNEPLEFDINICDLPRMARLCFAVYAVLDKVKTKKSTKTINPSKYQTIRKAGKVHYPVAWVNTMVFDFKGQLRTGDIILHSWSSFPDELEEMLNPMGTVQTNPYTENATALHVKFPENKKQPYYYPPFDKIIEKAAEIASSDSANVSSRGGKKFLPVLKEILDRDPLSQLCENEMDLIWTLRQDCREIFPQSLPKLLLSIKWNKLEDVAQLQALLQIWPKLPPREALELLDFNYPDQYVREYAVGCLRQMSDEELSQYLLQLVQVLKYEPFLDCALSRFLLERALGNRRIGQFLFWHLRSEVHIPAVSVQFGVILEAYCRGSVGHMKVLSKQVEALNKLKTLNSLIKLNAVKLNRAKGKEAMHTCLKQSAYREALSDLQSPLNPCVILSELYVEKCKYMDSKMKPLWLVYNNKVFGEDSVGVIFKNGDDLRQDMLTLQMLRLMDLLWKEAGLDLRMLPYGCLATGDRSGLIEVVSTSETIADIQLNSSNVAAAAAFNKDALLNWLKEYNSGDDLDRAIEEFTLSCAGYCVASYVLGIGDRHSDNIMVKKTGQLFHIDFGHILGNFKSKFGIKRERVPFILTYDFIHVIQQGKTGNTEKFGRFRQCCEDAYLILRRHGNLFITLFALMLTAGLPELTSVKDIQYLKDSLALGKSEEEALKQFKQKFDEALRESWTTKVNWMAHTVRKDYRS
T4 sequence (P27986 whole entry partner): as the sequence (P27986 whole entry partner) above
In short: as §3

Balb/c splenic B cells = assay: B cell activation and proliferation assay; format: cell-based; settings: Mus musculus, read-out: B cell proliferation EC50
In short: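 Balb/c splenic B cells were isolated by Ficoll gradient and magnetic separation, plated at 50.000 cells/well in RPMI/10% FBS, and pre-incubated with compound for 30 min at 37° C (0.2% DMSO). Cells were stimulated for 72 h with a cocktail of 10 μg/ml LPS or 5 μg/ml anti-mouse IgM F(ab′)2 plus 2 ng/ml IL4. Alamar Blue fluorescence (560Ex/590Em) after 5 h gave IC50 or EC50.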

[1] = tested on: phospho-AKT in RAJI cells (PI3Kδ); assay: PI3Kδ selective assay, phospho-AKT in RAJI cells; format: cell-based; settings: RAJI cells stimulated with anti-human IgM; read-out: IC50 for phospho-AKT, RAJI cell model
Text: A compound's ability in selectively inhibiting PI3Kδ can be assessed using RAJI cells, i.e., B lymphocyte cells derived from lymphoma patients. Briefly, serum-starved RAJI cells are stimulated with anti-human IgM, thereby causing signaling through the B-cell receptors, as described in, for example, He et al., Leukemia Research (2009) 33: 798-802. B-cell receptor signaling is important for the activation, differentiation, and survival of B cells and certain B-cell derived cancers. Reduction of phospho-AKT is indicative of compounds that may inhibit B-cell proliferation and function in certain diseases. By monitoring the reduction of phospho-AKT in stimulated RAJI cells (using for example, phospho-AKT antibodies), a compound's potential efficacy in selectively inhibiting PI3Kδ can be assessed.

[2] = tested on: phospho-AKT in RAW 264.7 cells (PI3Kγ); assay: PI3Kγ selective assay, phospho-AKT in RAW 264.7 cells; format: cell-based; settings: Mus musculus, RAW264.7, stimulated with C5a, read-out: IC50 for phospho-AKT, RAW 264.7 cell model
Text: A compound's ability in selectively inhibiting PI3Kγ can be assessed using RAW264.7 macrophages. Briefly, serum-starved PAW264.7 cells are stimulated with a known GPCR agonist C5a. (See, e.g., Camps et al., Nature Medicine (2005) 11(9): 936-943). Cells can be treated with test compounds prior to, simultaneously with, or subsequent to the stimulation by C5a. RAW 264.7 cells respond to the complement component fragment C5a through activation of the C5a receptor, and the C5a receptor activates macrophages and induces cell migration. Test compounds' ability to inhibit C5a-mediated AKT phosphorylation is indicative of selective inhibition of PI3Kγ. Thus, by monitoring the reduction of phospho-AKT in stimulated RAW 264.7 cells (using for example, phospho-AKT antibodies), a compound's potential efficacy in selectively inhibiting PI3Kγ can be assessed.

[3] = tested on: phospho-AKT in SKOV-3 cells (PI3Kα); assay: PI3Kα selective assay, phospho-AKT in SKOV-3 cells; format: cell-based; settings: Homo sapiens, SK-OV-3; ranges between 1 μM and 10 μM and greater than 10 μM; read-out: IC50 for phospho-AKT, SKOV-3 cell model
Text: (§4) A compound's ability in selectively inhibiting PI3Kα can be assessed using SKOV-3 cells, i.e., human ovarian carcinoma cell line. Briefly, SKOV-3 cells, in which mutant PI3Kα is constitutively active, can be treated with test compounds. Test compounds' ability to inhibit AKT phosphorylation in SKOV-3 cells, therefore, is indicative of selective inhibition of PI3Kα. Thus, by monitoring the reduction of phospho-AKT in SKOV-3 cells (using for example, phospho-AKT antibodies), a compound's potential efficacy in selectively inhibiting PI3Kα can be assessed.
Certain compounds provided herein (e.g., Compounds 5, 49, 138, 326, 328, 354, 359, 389, and 391) were tested in SKOV-3 cell model using procedures as described above.

[4] = tested on: phospho-AKT in 786-O cells (PI3Kβ); assay: PI3Kβ selective assay, phospho-AKT in 786-O cells; format: cell-based; settings: Homo sapiens, 786-0; ranges between 1 μM and 10 μM and greater than 10 μM; read-out: IC50 for phospho-AKT, 786-O cell model
Text: as §4, with “PI3Kβ” for “PI3Kα”, “786-O” for “SKOV-3”, “kidney” for “ovarian”, “PI3Kβ” for “mutant PI3Kα”, “PI3β.” for “PI3Kα.”
Certain compounds provided herein (e.g., Compounds 5, 49, 138, 326, 328, 354, 359, 389, and 391) were tested in 786-O cell model using procedures as described above.

[5] = column bins 1 μM to 100 nM (given as 100-1000) and Less than 100 nM
[6] = bins Greater than 10 μM and Greater than 1 μM to 10 μM
[7] = ranges less than 100 nM and between 100 nM and 1 μM (given as 100-1000)

T1 sequence (O00329 whole entry): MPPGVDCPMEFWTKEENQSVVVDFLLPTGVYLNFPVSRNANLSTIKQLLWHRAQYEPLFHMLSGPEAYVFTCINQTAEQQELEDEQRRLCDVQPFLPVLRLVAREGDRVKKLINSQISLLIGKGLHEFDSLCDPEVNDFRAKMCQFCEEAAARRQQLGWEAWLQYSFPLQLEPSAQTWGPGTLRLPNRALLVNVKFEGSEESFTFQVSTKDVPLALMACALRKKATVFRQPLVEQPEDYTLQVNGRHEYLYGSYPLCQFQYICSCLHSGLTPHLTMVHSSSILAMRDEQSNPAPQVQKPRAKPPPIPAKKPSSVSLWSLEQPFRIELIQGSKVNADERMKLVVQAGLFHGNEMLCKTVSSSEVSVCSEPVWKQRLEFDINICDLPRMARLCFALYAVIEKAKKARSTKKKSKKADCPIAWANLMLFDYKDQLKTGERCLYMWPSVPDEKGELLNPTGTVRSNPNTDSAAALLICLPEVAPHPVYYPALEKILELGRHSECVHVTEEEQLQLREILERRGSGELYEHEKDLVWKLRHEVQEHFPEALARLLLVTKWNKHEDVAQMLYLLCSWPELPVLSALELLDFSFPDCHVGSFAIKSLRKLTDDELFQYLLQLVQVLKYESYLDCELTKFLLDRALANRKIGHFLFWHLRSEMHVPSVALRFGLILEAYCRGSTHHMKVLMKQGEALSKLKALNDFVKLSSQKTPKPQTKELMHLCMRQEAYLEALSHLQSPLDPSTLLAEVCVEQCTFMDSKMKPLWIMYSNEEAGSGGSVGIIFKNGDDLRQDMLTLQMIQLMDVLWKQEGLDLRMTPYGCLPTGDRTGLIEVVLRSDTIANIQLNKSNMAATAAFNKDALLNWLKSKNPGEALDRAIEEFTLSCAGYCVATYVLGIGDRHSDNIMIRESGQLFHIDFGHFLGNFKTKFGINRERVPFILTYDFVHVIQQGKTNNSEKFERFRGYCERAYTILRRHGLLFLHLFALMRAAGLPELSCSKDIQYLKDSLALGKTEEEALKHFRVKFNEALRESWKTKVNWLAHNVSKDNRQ
T1 sequence (P27986 whole entry partner): as the sequence (P27986 whole entry partner) above

SMILES	IC50 (PI3Kγ; [6]) [nM]	IC50 (PI3Kδ; [6]) [nM]	IC50 [1] [nM]	further results
CCc1ncc(-c2cccc3nc([C@H](C)Nc4nc(N)ncc4C#N)n(-c4ccccc4)c(=O)c23)cn1 [Compound 60]				IC50 (PI3Kδ; [5]): < 100 nM; IC50 (PI3Kγ; [5]): < 100 nM; IC50 (PI3Kα; [6]): > 10000 nM; IC50 (PI3Kβ): > 10000 nM; EC50 (Balb/c splenic B cells; [5]): < 100 nM
C[C@H](Nc1nc(Cl)ncc1[N+](=O)[O-])c1cc2cccc(Cl)c2c(=O)n1-c1ccccc1 [Compound 75, (S)-8-chloro-3-(1-(2-chloro-5-nitropyrimidin-4-ylamino)ethyl)-2-phenylisoquinolin-1(2H)-one]	1000 to 10000			
C[C@H](Nc1cc(Cl)ncn1)c1cc2cccc(Cl)c2c(=O)n1-c1ccccc1 [Compound 77, (S)-8-chloro-3-(1-(6-chloropyrimidin-4-ylamino)ethyl)-2-phenylisoquinolin-1(2H)-one]	1000 to 10000	1000 to 10000		
C[C@H](Nc1cc(N)ncn1)c1cc2cccc(Cl)c2c(=O)n1-c1ccccc1 [Compound 78, (S)-3-(1-(6-aminopyrimidin-4-ylamino)ethyl)-8-chloro-2-phenylisoquinolin-1(2H)-one]	1000 to 10000			
COc1cc(-c2cccc3cc([C@H](C)Nc4nc(N)ncc4C(=O)N(C)CCO)n(-c4ccccc4)c(=O)c23)ccn1 [Compound 114]	1000 to 10000	1000 to 10000		
CCOc1cncc(-c2cccc3cc([C@H](C)Nc4nc(N)ncc4C#N)n(-c4ccccc4)c(=O)c23)c1 [Compound 115]				IC50 (PI3Kδ; [5]): < 100 nM; IC50 (PI3Kγ; [5]): < 100 nM; IC50 (PI3Kα; [5]): 100 to 1000 nM; IC50 (PI3Kβ): 1000 to 10000 nM; EC50 (Balb/c splenic B cells; [5]): < 100 nM
COc1cc(-c2cccc3cc([C@H](C)Nc4nc(N)ncc4C(=O)N4CCOCC4)n(-c4ccccc4)c(=O)c23)ccn1 [Compound 119]	1000 to 10000	1000 to 10000		
C[C@H](Nc1nc(N)ncc1C#N)c1cc2cccc(-c3cccc(N(C)S(C)(=O)=O)c3)c2c(=O)n1-c1ccccc1 [Compound 153]				IC50 (PI3Kδ; [5]): < 100 nM; IC50 (PI3Kγ; [5]): < 100 nM; IC50 (PI3Kα; [5]): 100 to 1000 nM; IC50 (PI3Kβ): 1000 to 10000 nM; EC50 (Balb/c splenic B cells; [5]): < 100 nM
CC(=O)Nc1cnc(N)nc1N[C@@H](C)c1cc2cccc(Cl)c2c(=O)n1-c1ccccc1 [Compound 173]	1000 to 10000			
C[C@H](Nc1nc(N)ncc1NC(=O)c1ccccc1)c1cc2cccc(Cl)c2c(=O)n1-c1ccccc1 [Compound 175]	1000 to 10000	1000 to 10000		
C[C@H](Nc1nc(N)ncc1C#N)c1cc2cccc(-c3ccn(C)c(=O)c3)c2c(=O)n1-c1ccccc1 [Compound 182]	1000 to 10000	1000 to 10000		
COc1cc(N[C@@H](C)c2cc3cccc(Cl)c3c(=O)n2-c2ccccc2)nc(N)n1 [Compound 211]	1000 to 10000	1000 to 10000		EC50 (Balb/c splenic B cells; Greater than 1 μM to 10 μM): 1000 to 10000 nM
COC(=O)c1cccc(-n2c([C@H](C)Nc3nc(N)ncc3C#N)cc3cccc(Cl)c3c2=O)c1 [Compound 316]	1000 to 10000		< 100	IC50 (PI3Kα; [6]): 1000 to 10000 nM; IC50 [2, 7]: < 100 nM
COc1ncc(-c2cccc3cc([C@H](C)Nc4nc(N)ncc4C#N)n(-c4ccon4)c(=O)c23)cn1 [Compound 333]	1000 to 10000		< 100	IC50 ([2]; range between 1 μM and 10 μM): 1000 to 10000 nM
Cc1ncc(-c2cccc3cc([C@H](C)Nc4nc(N)ncc4C#N)n(-c4ccon4)c(=O)c23)cn1 [Compound 334]	1000 to 10000		< 100	IC50 ([2]; range between 1 μM and 10 μM): 1000 to 10000 nM
COc1ncc(-c2cccc3cc([C@H](C)Nc4ncnc(N)c4C#N)n(-c4ccon4)c(=O)c23)cn1 [Compound 337]	1000 to 10000		< 100	IC50 (PI3Kα; [6]): 1000 to 10000 nM; IC50 ([2]; range between 1 μM and 10 μM): 1000 to 10000 nM
C[C@H](Nc1ncnc(N)c1C#N)c1cc2cccc(Cl)c2c(C(=O)NC2CCOCC2)n1 [Compound 353]	1000 to 10000		< 100	IC50 ([2]; range between 1 μM and 10 μM): 1000 to 10000 nM
COc1nc(-c2cnc(N)nc2N[C@@H](C)c2cc3cccc(-c4ccc(=O)n(C)c4)c3c(=O)n2-c2ccccc2)cs1 [Compound 391]			< 100	IC50 [2, 7]: 100 to 1000 nM; IC50 [3]: > 10000 nM; IC50 [4]: > 10000 nM
C[C@H](Nc1nc(N)ncc1C(=O)C1CC1)c1cc2cccc(Cl)c2c(=O)n1-c1ccccc1 [Compound 425]	1000 to 10000	1000 to 10000	< 100	IC50 (PI3Kα; [6]): 1000 to 10000 nM; IC50 [2, 7]: 100 to 1000 nM
C[C@H](Nc1nc(N)ncc1C(=O)N1CC(F)(F)C1)c1cc2cccc(Cl)c2c(=O)n1-c1ccccc1 [Compound 434]	1000 to 10000	1000 to 10000		
COc1cc(-c2cccc3cc([C@H](C)Nc4nc(N)ncc4C(=O)NC4CC4)n(-c4ccccc4)c(=O)c23)ccn1 [Compound 441]	1000 to 10000	1000 to 10000		EC50 (Balb/c splenic B cells; Greater than 1 μM to 10 μM): 1000 to 10000 nM

Source: patent US8785470B2, “Heterocyclic compounds and uses thereof” (Infinity Pharmaceuticals, Inc., priority 2011, dated 2014)
